Assay results: the kinase profiling compilation of Christmann-Franck et al. (2016)
“And” between values parts separate entries of the source, which are not always exact repeats. Identical values can stand only once.

Experiments:
Assay in all cases: KINOMEscan competition binding
Details in all cases: compound 10.0 µM
[1] = biological target: MAPK13 (human) (UniProt O15264)
[2] = biological target: PRKCD (human) (UniProt Q05655)
[3] = biological target: HIPK1 (human) (UniProt Q86Z02)
[4] = biological target: CAMK2D (human) (UniProt Q13557)
[5] = biological target: PRKCQ (human) (UniProt Q04759)
[6] = biological target: CDK9 (human) (UniProt P50750)
[7] = biological target: RPS6KA1 KD2 (human) (UniProt Q15418)
[8] = biological target: MAP3K13 (human) (UniProt O43283)
[9] = biological target: STK38 (human) (UniProt Q15208)
[10] = biological target: STK4 (human) (UniProt Q13043)
[11] = biological target: MELK (human) (UniProt Q14680)
[12] = biological target: FGFR2 (human) (UniProt P21802)
[13] = biological target: STK32B (human) (UniProt Q9NY57)
[14] = biological target: TAOK2 (human) (UniProt Q9UL54)
[15] = biological target: PAK1 (human) (UniProt Q13153)
[16] = biological target: CDKL3 (human) (UniProt Q8IVW4)
[17] = biological target: KDR (human) (UniProt P35968)
[18] = biological target: CAMK1D (human) (UniProt Q8IU85)
[19] = biological target: MAP4K4 (human) (UniProt O95819)
[20] = biological target: MAP3K6 (human) (UniProt O95382)
[21] = biological target: CSNK1G2 (human) (UniProt P78368)
[22] = biological target: PKN1 (human) (UniProt Q16512)
[23] = biological target: CLK1 (human) (UniProt P49759)
[24] = biological target: BLK (human) (UniProt P51451)
[25] = biological target: CHEK1 (human) (UniProt O14757)
[26] = biological target: STK24 (human) (UniProt Q9Y6E0)
[27] = biological target: PTK6 (human) (UniProt Q13882)
[28] = biological target: ULK3 (human) (UniProt Q6PHR2)
[29] = biological target: MYLK (human) (UniProt Q15746)
[30] = biological target: BRSK2 (human) (UniProt Q8IWQ3)
[31] = biological target: STK39 (human) (UniProt Q9UEW8)
[32] = biological target: CLK4 (human) (UniProt Q9HAZ1)
[33] = biological target: GRK1 (human) (UniProt Q15835)
[34] = biological target: MAP4K2 (human) (UniProt Q12851)
[35] = biological target: DDR1 (human) (UniProt Q08345)
[36] = biological target: MAP3K9 (human) (UniProt P80192)
[37] = biological target: CDC2L2 (human) (UniProt Q9UQ88)
[38] = biological target: STK32A (human) (UniProt Q8WU08)
[39] = biological target: CDK15 (human) (UniProt Q96Q40)
[40] = biological target: HUNK (human) (UniProt P57058)

Chain of MAP4K4 (human) (O95819 whole entry, looked up): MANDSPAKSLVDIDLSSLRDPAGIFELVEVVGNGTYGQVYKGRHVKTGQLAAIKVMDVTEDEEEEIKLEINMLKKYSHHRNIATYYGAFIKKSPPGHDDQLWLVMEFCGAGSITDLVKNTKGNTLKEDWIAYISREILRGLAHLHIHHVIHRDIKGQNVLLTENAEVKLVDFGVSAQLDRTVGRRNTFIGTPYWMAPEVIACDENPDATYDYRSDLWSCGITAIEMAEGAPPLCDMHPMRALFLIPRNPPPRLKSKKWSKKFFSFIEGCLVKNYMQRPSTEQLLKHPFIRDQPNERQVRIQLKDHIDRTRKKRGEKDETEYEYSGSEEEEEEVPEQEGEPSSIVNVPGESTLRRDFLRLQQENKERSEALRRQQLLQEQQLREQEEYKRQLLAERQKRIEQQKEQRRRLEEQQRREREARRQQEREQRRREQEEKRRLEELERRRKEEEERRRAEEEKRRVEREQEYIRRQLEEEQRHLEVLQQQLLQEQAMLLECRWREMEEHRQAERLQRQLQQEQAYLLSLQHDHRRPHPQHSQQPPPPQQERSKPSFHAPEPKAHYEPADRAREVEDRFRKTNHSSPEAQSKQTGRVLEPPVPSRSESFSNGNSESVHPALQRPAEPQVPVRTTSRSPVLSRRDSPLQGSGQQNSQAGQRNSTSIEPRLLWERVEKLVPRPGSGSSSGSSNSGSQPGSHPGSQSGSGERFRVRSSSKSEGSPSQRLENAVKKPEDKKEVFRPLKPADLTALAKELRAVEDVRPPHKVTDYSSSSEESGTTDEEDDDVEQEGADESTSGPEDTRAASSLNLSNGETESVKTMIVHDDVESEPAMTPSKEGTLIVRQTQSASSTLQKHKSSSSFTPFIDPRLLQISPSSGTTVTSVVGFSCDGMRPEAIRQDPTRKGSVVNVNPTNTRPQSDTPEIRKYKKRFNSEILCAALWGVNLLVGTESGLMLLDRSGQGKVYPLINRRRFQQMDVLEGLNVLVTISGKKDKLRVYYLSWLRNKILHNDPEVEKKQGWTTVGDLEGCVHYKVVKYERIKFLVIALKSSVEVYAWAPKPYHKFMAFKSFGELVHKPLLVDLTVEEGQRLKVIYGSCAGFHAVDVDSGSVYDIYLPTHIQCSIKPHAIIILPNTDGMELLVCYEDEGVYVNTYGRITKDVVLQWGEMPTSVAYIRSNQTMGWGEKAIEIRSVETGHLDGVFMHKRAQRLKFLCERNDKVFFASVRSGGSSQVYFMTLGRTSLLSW
Chain of CLK4 (human) (Q9HAZ1 whole entry, looked up): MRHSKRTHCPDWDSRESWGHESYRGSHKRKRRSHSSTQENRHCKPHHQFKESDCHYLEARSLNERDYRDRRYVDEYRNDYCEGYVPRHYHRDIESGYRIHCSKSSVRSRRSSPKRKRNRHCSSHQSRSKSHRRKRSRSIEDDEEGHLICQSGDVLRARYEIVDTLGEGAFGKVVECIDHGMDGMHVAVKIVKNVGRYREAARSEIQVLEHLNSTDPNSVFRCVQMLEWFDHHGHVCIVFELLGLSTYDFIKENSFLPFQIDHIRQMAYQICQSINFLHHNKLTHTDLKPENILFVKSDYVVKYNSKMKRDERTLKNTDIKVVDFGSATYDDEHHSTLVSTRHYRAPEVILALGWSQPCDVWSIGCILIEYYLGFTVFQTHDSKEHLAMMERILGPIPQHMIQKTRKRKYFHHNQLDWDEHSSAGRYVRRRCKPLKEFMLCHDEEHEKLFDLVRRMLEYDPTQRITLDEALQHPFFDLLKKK
Chain of STK4 (human) (Q13043 whole entry, looked up): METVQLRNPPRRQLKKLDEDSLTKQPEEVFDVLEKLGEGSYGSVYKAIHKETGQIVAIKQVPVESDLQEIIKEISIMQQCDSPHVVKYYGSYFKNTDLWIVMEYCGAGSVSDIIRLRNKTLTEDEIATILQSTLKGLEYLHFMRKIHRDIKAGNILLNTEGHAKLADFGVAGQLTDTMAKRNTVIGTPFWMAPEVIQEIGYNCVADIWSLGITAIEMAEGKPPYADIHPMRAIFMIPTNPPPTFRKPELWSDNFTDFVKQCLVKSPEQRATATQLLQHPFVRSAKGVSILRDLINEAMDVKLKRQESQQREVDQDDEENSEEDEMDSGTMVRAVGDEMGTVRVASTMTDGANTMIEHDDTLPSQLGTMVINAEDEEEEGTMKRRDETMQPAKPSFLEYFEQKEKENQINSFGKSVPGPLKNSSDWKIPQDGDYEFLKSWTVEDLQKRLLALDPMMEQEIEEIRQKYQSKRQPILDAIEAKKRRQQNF
Chain of CAMK1D (human) (Q8IU85 whole entry, looked up): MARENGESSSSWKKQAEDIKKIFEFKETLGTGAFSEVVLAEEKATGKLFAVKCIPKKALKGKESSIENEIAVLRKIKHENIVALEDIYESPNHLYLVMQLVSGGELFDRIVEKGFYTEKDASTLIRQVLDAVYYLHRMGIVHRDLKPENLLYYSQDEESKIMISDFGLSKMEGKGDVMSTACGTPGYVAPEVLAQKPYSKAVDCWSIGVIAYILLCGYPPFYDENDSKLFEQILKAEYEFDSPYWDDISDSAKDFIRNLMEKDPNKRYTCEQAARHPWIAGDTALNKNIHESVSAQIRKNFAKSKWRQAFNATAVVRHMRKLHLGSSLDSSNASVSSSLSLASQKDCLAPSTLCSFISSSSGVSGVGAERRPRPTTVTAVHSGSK
Chain of CDK9 (human) (P50750 whole entry, looked up): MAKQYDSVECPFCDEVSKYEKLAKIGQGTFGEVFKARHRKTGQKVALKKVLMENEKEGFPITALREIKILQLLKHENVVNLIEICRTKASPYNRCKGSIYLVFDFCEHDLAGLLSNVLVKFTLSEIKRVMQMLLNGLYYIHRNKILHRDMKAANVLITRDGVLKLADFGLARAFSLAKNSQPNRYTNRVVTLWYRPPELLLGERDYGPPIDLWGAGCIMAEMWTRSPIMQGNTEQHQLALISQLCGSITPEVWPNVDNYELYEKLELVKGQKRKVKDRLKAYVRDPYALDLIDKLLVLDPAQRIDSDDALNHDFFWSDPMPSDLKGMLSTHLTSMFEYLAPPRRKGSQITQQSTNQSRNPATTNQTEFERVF
Chain of PTK6 (human) (Q13882 whole entry, looked up): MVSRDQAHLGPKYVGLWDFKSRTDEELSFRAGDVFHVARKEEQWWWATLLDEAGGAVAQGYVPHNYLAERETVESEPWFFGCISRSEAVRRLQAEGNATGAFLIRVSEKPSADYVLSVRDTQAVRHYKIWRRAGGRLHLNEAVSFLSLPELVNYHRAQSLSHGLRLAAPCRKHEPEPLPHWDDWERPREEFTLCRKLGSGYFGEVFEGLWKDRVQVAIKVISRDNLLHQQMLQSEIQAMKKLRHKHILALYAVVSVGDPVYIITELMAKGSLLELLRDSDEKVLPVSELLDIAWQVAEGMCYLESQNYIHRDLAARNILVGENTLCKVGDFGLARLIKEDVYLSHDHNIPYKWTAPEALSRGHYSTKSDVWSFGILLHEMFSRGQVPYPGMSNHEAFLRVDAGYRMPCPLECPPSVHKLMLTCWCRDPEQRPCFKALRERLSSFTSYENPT
Chain of RPS6KA1 KD2 (human) (Q15418 whole entry, looked up): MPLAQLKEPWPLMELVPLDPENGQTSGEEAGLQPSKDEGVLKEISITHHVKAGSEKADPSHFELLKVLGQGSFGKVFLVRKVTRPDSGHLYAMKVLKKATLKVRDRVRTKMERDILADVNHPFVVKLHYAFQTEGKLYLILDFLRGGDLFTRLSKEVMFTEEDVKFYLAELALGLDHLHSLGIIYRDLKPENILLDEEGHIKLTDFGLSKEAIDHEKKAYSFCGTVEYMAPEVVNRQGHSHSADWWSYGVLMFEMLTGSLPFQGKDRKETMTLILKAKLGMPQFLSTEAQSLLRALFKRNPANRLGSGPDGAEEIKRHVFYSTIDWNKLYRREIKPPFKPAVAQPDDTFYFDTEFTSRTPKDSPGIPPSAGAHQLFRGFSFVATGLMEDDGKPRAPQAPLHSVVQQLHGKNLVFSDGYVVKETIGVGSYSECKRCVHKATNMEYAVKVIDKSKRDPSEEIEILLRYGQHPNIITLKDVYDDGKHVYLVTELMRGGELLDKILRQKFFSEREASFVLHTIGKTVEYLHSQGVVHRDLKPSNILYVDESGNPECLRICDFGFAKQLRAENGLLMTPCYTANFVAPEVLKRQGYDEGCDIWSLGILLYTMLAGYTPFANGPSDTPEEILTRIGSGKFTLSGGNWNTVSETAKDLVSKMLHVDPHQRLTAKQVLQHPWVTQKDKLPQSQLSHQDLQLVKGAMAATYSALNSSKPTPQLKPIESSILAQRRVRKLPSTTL
Chain of CAMK2D (human) (Q13557 whole entry, looked up): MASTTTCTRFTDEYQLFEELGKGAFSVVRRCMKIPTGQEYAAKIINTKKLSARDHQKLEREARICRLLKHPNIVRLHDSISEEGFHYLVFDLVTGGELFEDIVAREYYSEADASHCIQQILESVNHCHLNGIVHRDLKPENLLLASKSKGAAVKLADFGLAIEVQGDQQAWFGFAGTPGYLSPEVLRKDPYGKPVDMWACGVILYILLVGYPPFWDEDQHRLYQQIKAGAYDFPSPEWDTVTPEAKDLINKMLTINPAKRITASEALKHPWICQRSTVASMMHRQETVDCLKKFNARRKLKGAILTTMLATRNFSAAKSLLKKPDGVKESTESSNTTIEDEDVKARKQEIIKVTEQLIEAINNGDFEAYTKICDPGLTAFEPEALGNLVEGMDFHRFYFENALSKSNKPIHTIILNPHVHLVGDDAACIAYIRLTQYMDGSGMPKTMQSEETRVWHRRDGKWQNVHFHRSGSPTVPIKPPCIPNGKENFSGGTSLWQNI
Chain of MAPK13 (human) (O15264 whole entry, looked up): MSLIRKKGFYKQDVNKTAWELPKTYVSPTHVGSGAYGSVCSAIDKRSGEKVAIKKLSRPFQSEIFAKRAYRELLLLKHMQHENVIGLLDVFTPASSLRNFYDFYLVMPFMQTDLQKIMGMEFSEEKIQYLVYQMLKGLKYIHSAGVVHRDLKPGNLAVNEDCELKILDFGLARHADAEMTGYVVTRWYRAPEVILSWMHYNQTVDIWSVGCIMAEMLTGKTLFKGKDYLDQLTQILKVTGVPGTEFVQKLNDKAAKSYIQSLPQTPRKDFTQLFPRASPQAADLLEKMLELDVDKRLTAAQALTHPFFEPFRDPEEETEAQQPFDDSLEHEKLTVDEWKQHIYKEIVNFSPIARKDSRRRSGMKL

SMILES | kinase still bound, per cent of control [1] [%] | kinase still bound, per cent of control [2] [%] | kinase still bound, per cent of control [3] [%] | kinase still bound, per cent of control [4] [%] | kinase still bound, per cent of control [5] [%] | kinase still bound, per cent of control [6] [%] | kinase still bound, per cent of control [7] [%] | kinase still bound, per cent of control [8] [%] | kinase still bound, per cent of control [9] [%] | kinase still bound, per cent of control [10] [%] | kinase still bound, per cent of control [11] [%] | kinase still bound, per cent of control [12] [%] | kinase still bound, per cent of control [13] [%] | kinase still bound, per cent of control [14] [%] | kinase still bound, per cent of control [15] [%] | kinase still bound, per cent of control [16] [%] | kinase still bound, per cent of control [17] [%] | kinase still bound, per cent of control [18] [%] | kinase still bound, per cent of control [19] | kinase still bound, per cent of control [20] [%] | other results
O=C1NC(=O)/C(=C/c2ccc3nccc(-c4ccncc4)c3c2)S1 | 100 | 20 | 6.9 | 10 | 60 | 16 | 19 | 82 | 61 | 81 | 8.6 | 100 | 100 | 50 | 86 | 99 | 81 | 57 | 41% and 47% | 96 | kinase still bound, per cent of control [21]: 0.05%; kinase still bound, per cent of control [22]: 56%; kinase still bound, per cent of control [23]: 0%; kinase still bound, per cent of control [24]: 77%; kinase still bound, per cent of control [25]: 57%; kinase still bound, per cent of control [26]: 87%; kinase still bound, per cent of control [27]: 87%; kinase still bound, per cent of control [28]: 39%; kinase still bound, per cent of control [29]: 19%; kinase still bound, per cent of control [30]: 91%; kinase still bound, per cent of control [31]: 71%; kinase still bound, per cent of control [32]: 0.2%; kinase still bound, per cent of control [33]: 22%; kinase still bound, per cent of control [34]: 5.8%; kinase still bound, per cent of control [35]: 62%; kinase still bound, per cent of control [36]: 76%; kinase still bound, per cent of control [37]: 85%; kinase still bound, per cent of control [38]: 83%; kinase still bound, per cent of control [39]: 9.6%; kinase still bound, per cent of control [40]: 59%
CCN1CCN(C(=O)Cc2ccc(Nc3ncc(F)c(Nc4ccc(C(=O)Nc5ccccc5Cl)cc4)n3)cc2)CC1 | 100 | 60 | 3.2 | 71 | 74 | 73 | 45 | 44 | 70 | 98 | 55 | 25 | 100 | 56 | 53 | 89 | 16 | 5.6 | 69% | 86 | kinase still bound, per cent of control [21]: 58%; kinase still bound, per cent of control [22]: 56%; kinase still bound, per cent of control [23]: 22%; kinase still bound, per cent of control [24]: 28%; kinase still bound, per cent of control [25]: 100%; kinase still bound, per cent of control [26]: 32%; kinase still bound, per cent of control [27]: 16%; kinase still bound, per cent of control [28]: 1.5%; kinase still bound, per cent of control [29]: 57%; kinase still bound, per cent of control [30]: 82%; kinase still bound, per cent of control [31]: 100%; kinase still bound, per cent of control [32]: 28%; kinase still bound, per cent of control [33]: 100%; kinase still bound, per cent of control [34]: 51%; kinase still bound, per cent of control [35]: 22%; kinase still bound, per cent of control [36]: 17%; kinase still bound, per cent of control [37]: 95%; kinase still bound, per cent of control [38]: 100%; kinase still bound, per cent of control [39]: 64%; kinase still bound, per cent of control [40]: 49%
